Laboratory results as given in patent US9382255B2, “Substituted pyrrolopyrimidinylamino-benzothiazolones as MKNK kinase inhibitors” (BAYER PHARMA AKTIENGESELLSCHAFT, priority 2012, dated 2016).

target: T1, human full-length MKNK1 (Homo sapiens, UniProt Q9BUB5, T385D); experiment: MKNK1 kinase high ATP assay (TR-FRET); type: biochemical; settings: high ATP (2 mM final), 15 min preincubation with enzyme, GST-MKNK1 (T344D)
T1 construct: GST (N); purchased Carna Biosciences 02-145; host or cells: insect cells (baculovirus expression system)
Description: MKNK1 Kinase High ATP Assay
MKNK1-inhibitory activity at high ATP of compounds of the present invention after their preincubation with MKNK1 was quantified employing the TR-FRET-based MKNK1 high ATP assay as described in the following paragraphs.
A recombinant fusion protein of Glutathione-S-Transferase (GST, N-terminally) and human full-length MKNK1 (amino acids 1-424 and T344D of accession number BAA 19885.1), expressed in insect cells using baculovirus expression system and purified via glutathione sepharose affinity chromatography, was purchased from Carna Biosciences (product no 02-145) and used as enzyme. As substrate for the kinase reaction the biotinylated peptide biotin-Ahx-IKKRKLTRRKSLKG (C-terminus in amide form) was used, which can be purchased e.g. from the company Biosyntan (Berlin-Buch, Germany).
For the assay 50 nL of a 100 fold concentrated solution of the test compound in DMSO was pipetted into a black low volume 384 well microtiter plate (Greiner Bio-One, Frickenhausen, Germany), 2 μL of a solution of MKNK1 in aqueous assay buffer [50 mM HEPES pH 7.5, 5 mM MgCL2, 1.0 mM dithiothreitol, 0.005% (v/v) Nonidet-P40 (Sigma)] was added and the mixture was incubated for 15 min at 22° C. to allow pre-binding of the test compounds to the enzyme before the start of the kinase reaction. Then the kinase reaction was started by the addition of 3 μL of a solution of adenosine-tri-phosphate (ATP, 3.3 mM=>final conc. in the 5 μL assay volume is 2 mM) and substrate (0.1 μM=>final conc. in the 5 μL assay volume is 0.06 μM) in assay buffer and the resulting mixture was incubated for a reaction time of 30 min at 22° C. The concentration of MKNK1 was adjusted depending of the activity of the enzyme lot and was chosen appropriate to have the assay in the linear range, typical concentrations were in the range of 0.003 μg/mL. The reaction was stopped by the addition of 5 μL of a solution of TR-FRET detection reagents (5 nM streptavidine-XL665 [Cisbio Bioassays, Codolet, France] and 1 nM anti-ribosomal protein S6 (pSer236)-antibody from Invitrogen [#44921G] and 1 nM LANCE EU-W1024 Labeled ProteinG [Perkin-Elmer, product no. AD0071]) in an aqueous EDTA-solution (100 mM EDTA, 0.1% (w/v) bovine serum albumin in 50 mM HEPES pH 7.5).
The resulting mixture was incubated for 1 h at 22° C. to allow the formation of complex between the phosphorylated biotinylated peptide and the detection reagents. Subsequently the amount of phosphorylated substrate was evaluated by measurement of the resonance energy transfer from the Eu-chelate to the streptavidine-XL. Therefore, the fluorescence emissions at 620 nm and 665 nm after excitation at 350 nm were measured in a TR-FRET reader, e.g. a Rubystar (BMG Labtechnologies, Offenburg, Germany) or a Viewlux (Perkin-Elmer). The ratio of the emissions at 665 nm and at […] was taken as the measure for the amount of phosphorylated substrate. The data were normalised (enzyme reaction without inhibitor=0% inhibition, all other assay components but no enzyme=100% inhibition).

T1 sequence (Q9BUB5 1-424 isoform Q9BUB5-2 T344D): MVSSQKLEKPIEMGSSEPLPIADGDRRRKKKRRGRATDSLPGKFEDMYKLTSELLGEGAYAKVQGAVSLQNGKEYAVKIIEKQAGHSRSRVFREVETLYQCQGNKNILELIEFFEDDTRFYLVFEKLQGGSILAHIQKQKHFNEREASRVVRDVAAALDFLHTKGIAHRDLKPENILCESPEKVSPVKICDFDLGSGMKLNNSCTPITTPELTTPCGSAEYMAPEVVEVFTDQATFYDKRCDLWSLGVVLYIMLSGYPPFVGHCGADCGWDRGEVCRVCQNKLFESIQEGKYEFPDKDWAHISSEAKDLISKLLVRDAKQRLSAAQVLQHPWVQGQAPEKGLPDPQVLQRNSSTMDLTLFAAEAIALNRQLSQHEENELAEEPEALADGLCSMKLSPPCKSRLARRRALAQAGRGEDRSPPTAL

Row | IC50 [µM] | Structure (SMILES)
1 | 0.027 | CCc1[nH]c2ncnc(Nc3ccc4[nH]c(=O)sc4c3)c2c1C [Example 1, 6-[(6-Ethyl-5-methyl-7H-pyrrolo[2,3-d]pyrimidin-4-yl)amino]-1,3-benzothiazol-2(3H)-one]
2 | 0.027 | O=c1[nH]c2ccc(Nc3ncnc4[nH]cc(F)c34)cc2s1 [Example 2, 6-[(5-Fluoro-7H-pyrrolo[2,3-d]pyrimidin-4-yl)amino]-1,3-benzothiazol-2(3H)-one]
3 | 0.007 | O=C(O)c1c[nH]c2ncnc(Nc3ccc4[nH]c(=O)sc4c3)c12 [Example 3, 4-[(2-Oxo-2,3-dihydro-1,3-benzothiazol-6-yl)amino]-7H-pyrrolo[2,3-d]pyrimidine-5-carboxylic acid]
4 | 0.019 | CN1CCN(C(=O)c2c[nH]c3ncnc(Nc4ccc5[nH]c(=O)sc5c4)c23)CC1 [Example 4, 6-({5-[(4-Methylpiperazin-1-yl)carbonyl]-7H-pyrrolo[2,3-d]pyrimidin-4-yl}amino)-1,3-benzothiazol-2(3H)-one]
5 | 0.004 | CC(C)NC(=O)c1c[nH]c2ncnc(Nc3ccc4[nH]c(=O)sc4c3)c12 [Example 5, N-Isopropyl-4-[(2-oxo-2,3-dihydro-1,3-benzothiazol-6-yl)amino]-7H-pyrrolo[2,3-d]pyrimidine-5-carboxamide]
6 | 0.019 | O=c1[nH]c2ccc(Nc3ncnc4[nH]ccc34)cc2s1 [Example 6, 6-(7H-Pyrrolo[2,3-d]pyrimidin-4-ylamino)-1,3-benzothiazol-2(3H)-one]
7 | 0.044 | O=c1[nH]c2ccc(Nc3ncnc4[nH]ncc34)cc2s1 [Example 7, 6-(1H-pyrazolo[3,4-d]pyrimidin-4-ylamino)-1,3-benzothiazol-2(3H)-one]
8 | 0.005 | O=c1[nH]c2ccc(Nc3ncnc4[nH]c(Br)cc34)cc2s1 [Example 8, 6-[(6-Bromo-7H-pyrrolo[2,3-d]pyrimidin-4-yl)amino]-1,3-benzothiazol-2(3H)-one]
9 | 0.011 | O=c1[nH]c2ccc(Nc3ncnc4[nH]cnc34)cc2s1 [Example 9, 6-(9H-Purin-6-ylamino)-1,3-benzothiazol-2(3H)-one]
10 | 0.002 | CCOC(=O)c1cc2c(Nc3ccc4[nH]c(=O)sc4c3)ncnc2[nH]1 [Example 10, Ethyl 4-[(2-oxo-2,3-dihydro-1,3-benzothiazol-6-yl)amino]-7H-pyrrolo[2,3-d]pyrimidine-6-carboxylate]
11 | 0.006 | O=c1[nH]c2ccc(Nc3ncnc4[nH]c(C#CCO)cc34)cc2s1 [Example 11, 6-{[6-(3-Hydroxyprop-1-yn-1-yl)-7H-pyrrolo[2,3-d]pyrimidin-4-yl]amino}-1,3-benzothiazol-2(3H)-one]
12 | 0.013 | N#Cc1c[nH]c2ncnc(Nc3ccc4[nH]c(=O)sc4c3)c12 [Example 12, 4-[(2-Oxo-2,3-dihydro-1,3-benzothiazol-6-yl)amino]-7H-pyrrolo[2,3-d]pyrimidine-5-carbonitrile]
13 | 0.006 | CCc1[nH]c2ncnc(Nc3cc4sc(=O)[nH]c4cc3OC)c2c1C [Example 13, 6-[(6-Ethyl-5-methyl-7H-pyrrolo[2,3-d]pyrimidin-4-yl)amino]-5-methoxy-1,3-benzothiazol-2(3H)-one]
14 | 0.025 | Cc1cc2c(Nc3ccc4[nH]c(=O)sc4c3)ncnc2[nH]1 [Example 14, 6-[(6-Methyl-7H-pyrrolo[2,3-d]pyrimidin-4-yl)amino]-1,3-benzothiazol-2(3H)-one]
15 | 0.009 | Cc1c[nH]c2ncnc(Nc3ccc4[nH]c(=O)sc4c3)c12 [Example 15, 6-[(5-Methyl-7H-pyrrolo[2,3-d]pyrimidin-4-yl)amino]-1,3-benzothiazol-2(3H)-one]
16 | 0.011 | O=c1[nH]c2ccc(Nc3ncnc4[nH]c(Cl)cc34)cc2s1 [Example 16, 6-[(6-Chloro-7H-pyrrolo[2,3-d]pyrimidin-4-yl)amino]-1,3-benzothiazol-2(3H)-one]

Row | IC50 [µM] | Structure (SMILES)
17 | 0.009 | O=c1[nH]c2ccc(Nc3ncnc4[nH]c(CCCO)cc34)cc2s1 [Example 17, 6-{[6-(3-Hydroxypropyl)-7H-pyrrolo[2,3-d]pyrimidin-4-yl]amino}-1,3-benzothiazol-2(3H)-one]
18 | 0.018 | COc1cc2[nH]c(=O)sc2cc1Nc1ncnc2[nH]c(Br)cc12 [Example 18, 6-[(6-Bromo-7H-pyrrolo[2,3-d]pyrimidin-4-yl)amino]-5-methoxy-1,3-benzothiazol-2(3H)-one]
19 | 0.011 | COc1cc2[nH]c(=O)sc2cc1Nc1ncnc2[nH]ccc12 [Example 19, 5-Methoxy-6-(7H-pyrrolo[2,3-d]pyrimidin-4-ylamino)-1,3-benzothiazol-2(3H)-one]
20 | 0.015 | CN(C)C(=O)c1c[nH]c2ncnc(Nc3ccc4[nH]c(=O)sc4c3)c12 [Example 20, N,N-dimethyl-4-[(2-oxo-2,3-dihydro-1,3-benzothiazol-6-yl)amino]-7H-pyrrolo[2,3-d]pyrimidine-5-carboxamide]
21 | 0.032 | CC(C)Cc1[nH]c2ncnc(Nc3ccc4[nH]c(=O)sc4c3)c2c1C(C)C [Example 21, 6-[(6-Isobutyl-5-isopropyl-7H-pyrrolo[2,3-d]pyrimidin-4-yl)amino]-1,3-benzothiazol-2(3H)-one]
22 | 0.016 | CCCc1[nH]c2ncnc(Nc3ccc4[nH]c(=O)sc4c3)c2c1CC [Example 22, 6-[(5-Ethyl-6-propyl-7H-pyrrolo[2,3-d]pyrimidin-4-yl)amino]-1,3-benzothiazol-2(3H)-one]
23 | 0.012 | O=c1[nH]c2ccc(Nc3ncnc4[nH]c(S(=O)(=O)c5ccc(Cl)cc5)cc34)cc2s1 [Example 23, 6-({6-[(4-Chlorophenyl)sulfonyl]-7H-pyrrolo[2,3-d]pyrimidin-4-yl}amino)-1,3-benzothiazol-2(3H)-one]
24 | 0.005 | Cc1ccc(S(=O)(=O)c2cc3c(Nc4ccc5[nH]c(=O)sc5c4)ncnc3[nH]2)cc1 [Example 24, 6-({6-[(4-Methylphenyl)sulfonyl]-7H-pyrrolo[2,3-d]pyrimidin-4-yl}amino)-1,3-benzothiazol-2(3H)-one]
25 | 0.004 | CCOC(=O)c1cc2c(Nc3cc4sc(=O)[nH]c4cc3OC)ncnc2[nH]1 [Example 25, Ethyl 4-[(5-methoxy-2-oxo-2,3-dihydro-1,3-benzothiazol-6-yl)amino]-7H-pyrrolo[2,3-d]pyrimidine-6-carboxylate]
26 | 0.021 | COc1cc2[nH]c(=O)sc2cc1Nc1ncnc2[nH]c(C(=O)O)cc12 [Example 26, 4-[(5-Methoxy-2-oxo-2,3-dihydro-1,3-benzothiazol-6-yl)amino]-7H-pyrrolo[2,3-d]pyrimidine-6-carboxylic acid]
27 | 0.006 | O=c1[nH]c2ccc(Nc3ncnc4[nH]cc(Br)c34)cc2s1 [Example 27, 6-[(5-Bromo-7H-pyrrolo[2,3-d]pyrimidin-4-yl)amino]-1,3-benzothiazol-2(3H)-one]
28 | 0.001 | COc1cc2[nH]c(=O)sc2cc1Nc1ncnc2[nH]cc(F)c12 [Example 28, 6-[(5-Fluoro-7H-pyrrolo[2,3-d]pyrimidin-4-yl)amino]-5-methoxy-1,3-benzothiazol-2(3H)-one]
29 | 0.005 | CCCc1[nH]c2ncnc(Nc3cc4sc(=O)[nH]c4cc3OC)c2c1CC [Example 29, 6-[(5-Ethyl-6-propyl-7H-pyrrolo[2,3-d]pyrimidin-4-yl)amino]-5-methoxy-1,3-benzothiazol-2(3H)-one]
30 | 0.036 | O=C(O)c1cc2c(Nc3ccc4[nH]c(=O)sc4c3)ncnc2[nH]1 [Example 30, 4-[(2-Oxo-2,3-dihydro-1,3-benzothiazol-6-yl)amino]-7H-pyrrolo[2,3-d]pyrimidine-6-carboxylic acid]
31 | 0.04 | CN(C)C1CCN(C(=O)c2cc3c(Nc4ccc5[nH]c(=O)sc5c4)ncnc3[nH]2)CC1 [Example 31, 6-[(6-{[4-(Dimethylamino)piperidin-1-yl]carbonyl}-7H-pyrrolo[2,3-d]pyrimidin-4-yl)amino]-1,3-benzothiazol-2(3H)-one]
32 | 0.02 | O=C(c1cc2c(Nc3ccc4[nH]c(=O)sc4c3)ncnc2[nH]1)N1CCOCC1 [Example 32, 6-{[6-(Morpholin-4-ylcarbonyl)-7H-pyrrolo[2,3-d]pyrimidin-4-yl]amino}-1,3-benzothiazol-2(3H)-one]
